What was measured:
HUVECs (ECs) = experiment: Proliferation of ECs (HUVECs) in the presence of synthetic peptides ([^3H]-Thymidine uptake); assay type: cell-based, human; details: for Highest proliferative response of ECs, fold increase / [^3H]-Thymidine uptake in ECs: normoxia; for [^3H]-Thymidine uptake in ECs: 0.05-100 ng/ml; for [^3H]-Thymidine uptake in ECs / [^3H]-Thymidine uptake / proliferation of ECs under and following hypoxia: 24 hours
Protocol: Proliferation of ECs in the presence of synthetic peptides—ECs were incubated in the presence of EBM-2 medium containing supplements (Cambrex BioWhittaker Cell Biology Products, Walkersville, USA). Cells were passaged every 3 days by harvesting cells with 0.25% […] (Biological Industries) and re-plating the cells at a concentration of 10^4 cells per a 25 cm^2 flask. ECs from passage 3 were used for proliferation experiments.
ECs (12×10^3 cells/well) were seeded on 24-well plates in EBM-2 medium containing supplements. Following a 24-hours incubation, cells were subjected to 24 hours of starvation in supplements-free medium (SFM). Synthetic peptides (SP, LT, TR, and VL) were each added at concentrations of 0.05, 0.1, 1, 10, or 100 ng/ml for 24 hours. For a proliferation assay, 2 μCi/well of [^3H]-Thymidine (SIGMA, Rehovot, Israel) were added for a 6-hour incubation, following which the plates were washed 3 times with PBS. For cell lysis, the plates were incubated for 15 minutes at 37° C. with 300 μl/well of 0.5 M NaOH. Subsequently, cell lysates were transferred to scintillation vials containing 2 ml of scintillation liquid (Ultima Gold, Packard Bioscience, Meriden, Conn., USA) and counted (cpm/min) in a β counter (Scintillation β Counter 1600 TR, Packard A Camberra Company, Meriden, Conn., USA).
Synthetic peptides induced proliferation or migration after and under hypoxia treatment—Cell proliferation or migration assays were performed as described in Example 3, hereinabove, except that cells were divided to 3 groups: control cells, cells after exposure to hypoxia conditions or cells proliferating under hypoxia conditions. For cell proliferation assays, ECs were incubated with QF, LT and SP and MVECs were incubated with LT, SP, and YR. For cell migration assays, ECs were incubated with EBM-2 and MVECs were incubated with EBM-MV media.

rat ischemic hind limb = experiment: Rat ischemic hind-limb model, laser-Doppler blood flow; assay type: in vivo; details: 600 μg peptide, days 2, 6, 9 and 13
Protocol: Rat ischemic hind-limb model and laser-Doppler imager analysis—A rat ischeric hind limb model was used for evaluation of the in vivo potential of angiogenesis induced by the selected synthetic peptides. Ischemia was created in the rat left hind limb by ligation the femoral artery. The right hind limb served as a control. A day after the operation each of the peptides was injected into two sites close to the ligation and one site distal to the ligation. Each rat was treated with each of the peptides in a total amount of 600 μg.
The blood flow was measured using a Laser Doppler Blood Flow analyzer (MoorLDI, Moor Instrument, Wilmington, Del.) at 2, 6, 9 and 13 days after peptides injections. The average perfusion of each limb was computed and blood flow was expressed as the ischemic (left)/control (right) blood flow ratio.

ECs (HUVECs) = experiment: FACS binding of FITC-labeled synthetic peptides to ECs; design: species or system human; details: 6 μg FITC labeled peptide, 10^5 ECs, 2 hours
Protocol: Fluorescein labeling of synthetic peptides—Fluorescein Isothiocyanate (FTIC, Pierce, Rockford, Ill.) is an amino-reactive probe that reacts in an alkine environment with primary amines to form a stable fluorescent derivative. 12.5 μl of FITC (10 mg/ml) were added per 1 mg of peptide diluted in 0.5 M bicarbonate buffer (pH 9.5) and agitated in the dark for 2 hours. 0.1 ml of 1.5 M hydroxilamine was then added per 1 ml of reaction mixture and agitated for an additional 30 minutes at room temperature. Unbound FITC was removed by dialysis in the presence of PBS.
Peptide binding to ECs—ECs were cultured in M199 supplemented with 10% FCS. For peptide binding assays, the cells were trypsinized and 10^5 cells were suspended in PBS supplemented with 5% FCS and 0.1% sodium azide. Cells were incubated for 2 hours (on ice, in the dark) in the presence of 1-6 μg of FITC-labeled peptides, following which the stained cells were washed twice with PBS. Samples were analyzed by FACS (FACScan, Becton Dickinson, San Jose, Calif., USA). For control, 0.5×10^6 of PBLs were utilized.
FACS analysis of peptide binding to ECs with and without hypoxia treatment—ECs were exposed to hypoxia conditions and then prepared for FACS analysis as described in Example 3, hereinabove. […] Samples were analyzed by Fluorescence Activated Cell Sorter (FACScan Beckton Dickinson, Calif., USA).

Row | Sequence | Highest proliferative response of ECs, fold increase (HUVECs (ECs); 10 ng/ml) | [^3H]-Thymidine uptake in ECs (HUVECs (ECs)) | Highest proliferative response of ECs, fold increase (HUVECs (ECs); 1 ng/ml) | Median flux of the ischemic leg/control leg (rat ischemic hind limb) | [^3H]-Thymidine uptake / proliferation of ECs under and following hypoxia (HUVECs (ECs)) | Binding to ECs exposed to hypoxia compared with normoxia (ECs (HUVECs)) | Increase of EC proliferation after hypoxia (HUVECs (ECs); 10 ng/ml) | Increase of EC proliferation under hypoxia (HUVECs (ECs); under hypoxia, 1 ng/ml)
1 | TLPWLEESYWRP (Phage displayed peptide) [TR] | 1.8 fold | significant dose-dependent increase | – | – | – | – | – | –
2 | VPWMEPAYQRFL (Phage displayed peptide) [VL] | – | significant dose-dependent increase | 1.8 fold | – | – | – | – | –
3 | YPHIDSLGHWRR (Phage displayed peptide) [YR] | – | – | – | 108.2% | – | – | – | –
4 | QPWLEQAYYSTF (Phage displayed peptide) [QF] | – | – | – | 112.5% | did not show increase in proliferation | – | – | –
5 | SAHGTSTGVPWP (Phage displayed peptide) | 1.6 fold | significant dose-dependent increase | – | – | significant dose-dependent increase | increased binding | 2 fold | –
6 | LLADTTHHRPWT (Phage displayed peptide) [LT] | 1.7 fold | significant dose-dependent increase | – | – | significant dose-dependent increase | increased binding | 3.5 fold | 1.7 fold

From patent US7473682B2, “Angiogenic peptides and uses thereof” (Ramot at Tel Aviv University Ltd., priority 2003, dated 2009)
